Data taken from US10782295B2, “Cysteine-reactive ligand discovery in proteomes” (THE SCRIPPS RESEARCH INSTITUTE, priority 2013, dated 2020).

Legend:
WT-ZAK = biological target: T1, WT-ZAK (Homo sapiens, UniProt Q9NYL2); assay: in-gel fluorescence labeling by HNEyne probe; assay type: binding; details: in vitro (10 μM) and in living cells (5 μM), 1 hour
T1 construct: Full-length cDNA encoding human ZAK-13 (BC001401); expressed in transfected cells
Protocol: (§1) The gel signals for IA-labeling of WT-ZAK were blocked by pretreatment with HNE over a concentration range that closely matched the HNE-sensitivity profile observed for C22 in competitive isoTOP-ABPP experiments (FIG. 4b, compare to FIG. 3a). […] Considering further that C22 is predicted to reside adjacent to the ATP-binding loop of ZAK, we postulated that the HNE-induced loss of kinase activity might be due to blockade of ATP-binding.
(§2) 50 μL of soluble lysate (1 mg/mL in PBS) of […] cells transfected with mock ZAKWT and ZAK-C22A was labeled with 10 μM of HNEyne4 (Cayman Chemicals, 1 μL of 500 μM stock in ethanol) for 1 hour at room temperature. Cycloaddition was performed with 200 μM rhodamine-azide, 1 mM TCEP, 100 μM TBTA ligand and 1 mM CuSO4. The reaction was allowed to proceed at room temperature for 1 hour before quenching with 20 μL of 4×SDS-PAGE loading buffer (reducing). Quenched reactions were separated by SDS-PAGE (40 μL of sample/lane) and visualized in-gel using a fluorescence scanner. For the in situ HNEyne labeling, WT- and C22A-ZAK transfected cells were grown in a 6-well plate to 100% confluency and switched into 1 mL of serum-free DMEM medium. […] 50 μL of soluble lysates were subjected to the cycloaddition protocol as described above and probe labeling was monitored by in-gel fluorescence.

C22A-ZAK = biological target: T2, C22A-ZAK (Homo sapiens, UniProt Q9NYL2, C22A); assay: in-gel fluorescence labeling by HNEyne probe; assay type: binding; details: in vitro (10 μM) and in living cells (5 μM), 1 hour
T2 construct: Full-length cDNA encoding human ZAK-13 (BC001401); expressed in transfected cells
T2 sequence (Q9NYL2 1-455 isoform Q9NYL2-2 C22A): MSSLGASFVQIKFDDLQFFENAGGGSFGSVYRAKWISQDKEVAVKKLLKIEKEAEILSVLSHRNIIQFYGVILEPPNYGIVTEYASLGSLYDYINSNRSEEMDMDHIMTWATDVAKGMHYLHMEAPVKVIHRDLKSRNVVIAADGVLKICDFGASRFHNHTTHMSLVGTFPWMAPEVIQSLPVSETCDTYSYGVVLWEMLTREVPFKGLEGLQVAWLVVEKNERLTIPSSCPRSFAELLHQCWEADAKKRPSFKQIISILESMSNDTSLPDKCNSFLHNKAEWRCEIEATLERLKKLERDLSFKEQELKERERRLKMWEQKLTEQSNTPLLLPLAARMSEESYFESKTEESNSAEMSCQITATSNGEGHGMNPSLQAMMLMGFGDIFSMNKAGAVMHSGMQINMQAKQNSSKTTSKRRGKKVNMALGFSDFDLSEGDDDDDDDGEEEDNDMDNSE
Protocol: as §1, §2

T1 sequence (Q9NYL2 1-455 isoform Q9NYL2-2): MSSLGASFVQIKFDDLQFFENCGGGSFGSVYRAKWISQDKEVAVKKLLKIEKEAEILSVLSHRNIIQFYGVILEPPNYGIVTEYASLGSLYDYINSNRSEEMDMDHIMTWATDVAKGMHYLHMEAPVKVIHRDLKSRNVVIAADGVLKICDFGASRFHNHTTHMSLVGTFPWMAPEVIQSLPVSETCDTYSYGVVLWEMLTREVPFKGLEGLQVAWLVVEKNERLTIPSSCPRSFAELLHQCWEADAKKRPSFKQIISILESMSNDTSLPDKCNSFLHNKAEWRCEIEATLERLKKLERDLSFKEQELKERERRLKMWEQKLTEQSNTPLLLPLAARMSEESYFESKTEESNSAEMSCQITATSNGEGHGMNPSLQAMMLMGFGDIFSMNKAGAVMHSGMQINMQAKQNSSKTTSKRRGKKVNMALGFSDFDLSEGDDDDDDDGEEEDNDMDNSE

## C#CCCCC(O)C=CC=O (centres unmarked) [HNEyne]
WT-ZAK
  probe labeling of WT-ZAK: direct labeling
C22A-ZAK
  probe labeling of C22A-ZAK mutant: but not the C22A-ZAK mutant
